Some test systems named below: NCI-H226 lung; UACC-257 melanoma; OVCAR-8 ovarian; BT-549 breast; 786-0 renal; SK-MEL-5 melanoma; SK-MEL-2 melanoma; SK-OV-3 ovarian; HCC-2998 colon; OVCAR-5 ovarian.
Holding throughout (experiment): inhibition of tumour cell growth, NCI panel, 48 h

The record followed here is PubChem BioAssay (NCI).

SMILES strings stand for the structures. Several values for one entry are separate records, joined by “and”; a condition that tells them apart may be missing. Identical values can stand only once.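 Assay format: 96-well plates, 48-hour exposure. GI50 is the concentration that inhibits growth by half. TGI marks complete inhibition of growth.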 Bounds are passed on as bounds.

As for `C/C=C(\N=C=S)C(=O)OC1C(COC(C)=O)OC([C@]2(O)CC(=O)C(=N)C(C(=O)O)=C2O)C(O)C1OC1CC(OC)C(O)([C@@H](C)OC(=O)[C@@H](C)CC)C(C)O1` (stereo not given in full), the TGI in the experiment with NCI-H226 lung is 39.5 µM; in the experiment with UACC-257 melanoma, 29.9 µM; in the experiment on OVCAR-8 ovarian, 15 µM; in the experiment with BT-549 breast, 16.5 µM; in the experiment on 786-0 renal, 26.6 µM; with SK-MEL-5 melanoma it was 28.6 µM. In addition, the TGI with SK-MEL-2 melanoma stood at 20 µM; in the experiment with SK-OV-3 ovarian, 52 µM; with HCC-2998 colon it was 40.1 µM; with OVCAR-5 ovarian, 40.4 µM.
For `C#C[C@@]1(O)[C@@H](CO)O[C@@H](n2cc(Br)c3c(Cl)ccnc32)[C@@H]1O`, the GI50 is 1.08 µM with NCI-H226 lung; > 100 µM with UACC-257 melanoma; 0.343 µM with OVCAR-8 ovarian; 0.522 µM with BT-549 breast; 1.68 µM with 786-0 renal; 39.7 µM in the experiment with SK-MEL-5 melanoma. Moreover, the GI50 in the experiment on SK-MEL-2 melanoma is 35.2 µM; with SK-OV-3 ovarian, 3.66 µM; with HCC-2998 colon, 2.89 µM; with OVCAR-5 ovarian, 1.96 µM. Moreover, the TGI is > 27 µM in the experiment on NCI-H226 lung; > 100 µM with UACC-257 melanoma; 1.91 µM in the experiment on OVCAR-8 ovarian; 12.2 µM in the experiment on BT-549 breast; > 100 µM with 786-0 renal; > 100 µM in the experiment on SK-MEL-5 melanoma. The TGI in the experiment with SK-MEL-2 melanoma, in the experiment with SK-OV-3 ovarian, with HCC-2998 colon and with OVCAR-5 ovarian was > 100 µM each time.
For the molecule `Cc1ccc(C[As+](c2ccccc2)(c2ccccc2)c2ccccc2)cc1`, the GI50 with NCI-H226 lung was 1.64 µM; with UACC-257 melanoma, 0.279 µM; in the experiment on OVCAR-8 ovarian, 0.599 µM; in the experiment on BT-549 breast, 0.392 µM; in the experiment on 786-0 renal, 3.15 µM; with SK-MEL-5 melanoma, 0.23 µM. Also, the GI50 in the experiment with SK-MEL-2 melanoma was 0.887 µM; with SK-OV-3 ovarian it was 1.82 µM; with HCC-2998 colon it was 0.645 µM; in the experiment with OVCAR-5 ovarian, 1.74 µM. For the same molecule, the TGI was > 100 µM with NCI-H226 lung; 1.75 µM with UACC-257 melanoma; 15.3 µM in the experiment on OVCAR-8 ovarian; 8.26 µM in the experiment on BT-549 breast; > 46.4 µM in the experiment with 786-0 renal; 0.719 µM in the experiment with SK-MEL-5 melanoma. Further, the TGI was 4.34 µM in the experiment with SK-MEL-2 melanoma, > 23.5 µM in the experiment with SK-OV-3 ovarian, 19.6 µM with HCC-2998 colon and > 87.2 µM in the experiment with OVCAR-5 ovarian.
For `Cc1cc(O)ccc1C1=NN(c2ccc(S(N)(=O)=O)cc2)C(=O)CC1`, the GI50 was 10.9 µM and 94.5 µM with NCI-H226 lung; 31.3 µM and > 100 µM in the experiment on UACC-257 melanoma; 15.4 µM and 46.2 µM in the experiment on OVCAR-8 ovarian; 1.49 µM with BT-549 breast; 18.9 µM and 43.6 µM in the experiment on 786-0 renal; 2.1 µM and 6.78 µM in the experiment with SK-MEL-5 melanoma. The GI50 in the experiment on SK-MEL-2 melanoma is 16.8 µM and 10.4 µM; in the experiment with SK-OV-3 ovarian it was 10.8 µM and 51.7 µM; with HCC-2998 colon, > 50 µM and 63.9 µM; in the experiment on OVCAR-5 ovarian, > 100 µM. In addition, the TGI with NCI-H226 lung was 50 µM and > 100 µM; with UACC-257 melanoma, 50 µM and > 100 µM; in the experiment with OVCAR-8 ovarian, 50 µM and > 100 µM; in the experiment on BT-549 breast it was 43.6 µM; in the experiment with 786-0 renal, 50 µM and > 100 µM; in the experiment on SK-MEL-5 melanoma, 50 µM and > 100 µM. Further, the TGI in the experiment on SK-MEL-2 melanoma is 50 µM and 77.7 µM; with SK-OV-3 ovarian it was 50 µM and > 100 µM; in the experiment on HCC-2998 colon it was > 100 µM; in the experiment with OVCAR-5 ovarian, > 100 µM.
Turning to `C[C@]12CC[C@H](O[C@@H]3O[C@H](CO[C@@H]4O[C@H](CO)[C@@H](O)[C@H](O)[C@H]4O)[C@@H](O)[C@H](O)[C@H]3O)C[C@@H]1CC[C@@H]1[C@@H]2CC[C@]2(C)[C@@H](C3=CC(=O)OC3)CC[C@]12O`, the TGI with NCI-H226 lung is > 95.8 µM; with UACC-257 melanoma, > 73.3 µM; in the experiment with OVCAR-8 ovarian, 96.9 µM; in the experiment with BT-549 breast, 21.5 µM; with 786-0 renal, > 100 µM; in the experiment on SK-MEL-5 melanoma, 8.52 µM. For the same molecule, the TGI in the experiment on SK-MEL-2 melanoma is > 94 µM; in the experiment with SK-OV-3 ovarian it was > 72.6 µM; in the experiment on HCC-2998 colon, 51 µM; in the experiment on OVCAR-5 ovarian, > 76.6 µM.
Regarding `COC(=O)[C@]12CC[C@@H](C)[C@H](C)[C@@H]1C1=CC[C@@H]3[C@@]4(C)C(C=O)=C[C@@](C)(CO)[C@@H]4[C@H](O)C[C@@]3(C)[C@]1(C)CC2`, the GI50 was 13.9 µM in the experiment with NCI-H226 lung; 3.11 µM in the experiment on UACC-257 melanoma; 3.51 µM in the experiment on OVCAR-8 ovarian; 3.27 µM with BT-549 breast; 2.97 µM in the experiment with 786-0 renal; 5.8 µM with SK-MEL-5 melanoma. The GI50 with SK-MEL-2 melanoma is 7.26 µM; with SK-OV-3 ovarian, 17 µM; in the experiment with HCC-2998 colon, 3.13 µM; in the experiment with OVCAR-5 ovarian, 3.47 µM. The TGI amounted to 46.9 µM with NCI-H226 lung; 13.1 µM in the experiment on UACC-257 melanoma; 14.4 µM in the experiment with OVCAR-8 ovarian; 14.1 µM with BT-549 breast; 11.1 µM in the experiment on 786-0 renal; 18.4 µM with SK-MEL-5 melanoma. The TGI in the experiment with SK-MEL-2 melanoma was 22.5 µM; in the experiment on SK-OV-3 ovarian it was 31.6 µM; in the experiment on HCC-2998 colon, 9.45 µM; in the experiment on OVCAR-5 ovarian, 17.9 µM.
In the case of `COC(=O)C1C(C(=O)O)C2(c3ccccc3)C(=O)C1(c1ccccc1)C(c1ccccc1)=C2c1ccccc1` (stereo not given), the GI50 in the experiment on NCI-H226 lung is 24.8 µM; in the experiment on UACC-257 melanoma it was 19.6 µM; in the experiment on OVCAR-8 ovarian, 18.8 µM; in the experiment with BT-549 breast, 18 µM; in the experiment on 786-0 renal, 21.2 µM; with SK-MEL-5 melanoma, 12.9 µM. Also, the GI50 in the experiment with SK-MEL-2 melanoma is 16.5 µM; with SK-OV-3 ovarian, 18.3 µM; with HCC-2998 colon, 15.7 µM; with OVCAR-5 ovarian, 19.3 µM. The TGI in the experiment on NCI-H226 lung worked out at 66 µM; in the experiment on UACC-257 melanoma it was 40.9 µM; in the experiment on OVCAR-8 ovarian, 35.9 µM; with BT-549 breast it was 37.6 µM; in the experiment on 786-0 renal it was 37.5 µM; with SK-MEL-5 melanoma it was 27.6 µM. The TGI in the experiment on SK-MEL-2 melanoma turned out to be 34.1 µM; in the experiment with SK-OV-3 ovarian it was 36.6 µM; in the experiment with HCC-2998 colon, 29.6 µM; in the experiment on OVCAR-5 ovarian it was 35.3 µM.
`Cn1ncc(C#N)c1-c1ccc2c(c1)CN([C@H](CN)Cc1cccc(F)c1)C2=O`: the GI50 in the experiment on NCI-H226 lung was 13.6 µM; in the experiment with UACC-257 melanoma it was 5.99 µM; with OVCAR-8 ovarian, 47.7 µM; in the experiment on BT-549 breast, 0.477 µM; in the experiment with 786-0 renal it was 0.145 µM; in the experiment with SK-MEL-5 melanoma it was 12.1 µM. The GI50 in the experiment with SK-MEL-2 melanoma was 16.6 µM; with SK-OV-3 ovarian, 0.255 µM; in the experiment with HCC-2998 colon, 5.96 µM; with OVCAR-5 ovarian it was 18.6 µM. The TGI is 65.3 µM with NCI-H226 lung; 66.6 µM in the experiment with UACC-257 melanoma; > 100 µM with OVCAR-8 ovarian; 12.1 µM in the experiment with BT-549 breast; 14.6 µM in the experiment on 786-0 renal; 24.9 µM in the experiment with SK-MEL-5 melanoma. For the same molecule, the TGI was 44.8 µM with SK-MEL-2 melanoma, 13.2 µM with SK-OV-3 ovarian, > 100 µM in the experiment on HCC-2998 colon and > 100 µM with OVCAR-5 ovarian.
